In ChEMBL document CHEMBL4028802, “DILIrank: the largest reference drug list ranked by the risk for developing drug-induced liver injury in humans” (Drug Discov Today, 2016):

Legend:
[1] = organism: Homo sapiens; experiment: Liver toxicity in human assessed as induction of drug-induced liver injury by measuring severity class index
[2] = organism: Homo sapiens; experiment: Liver toxicity in human assessed as induction of drug-induced liver injury by measuring verified drug-induced liver injury concern status
Wherever DILI severity class is given: key of the grades not given here.

| Structure (SMILES) | DILI_severity_class [1] | DILI_Concern [2] |
| --- | --- | --- |
| CC(C)(C#N)c1cc(Cn2cncn2)cc(C(C)(C)C#N)c1 [ANASTROZOLE] | 3 | Less-Dili-Concern |
| CCn1cc(C(=O)O)c(=O)c2ccc(C)nc21 [NALIDIXIC ACID] | 3 | Ambiguous-Dili-Concern |
| C=CCC1(C(C)C#CCC)C(=O)N=C(O)N(C)C1=O (stereo unspecified) [METHOHEXITAL] | 3 | Ambiguous-Dili-Concern |
| CCCc1nn(C)c2c(=O)[nH]c(-c3cc(S(=O)(=O)N4CCN(C)CC4)ccc3OCC)nc12 | 3 | Less-Dili-Concern |
| Cc1ccc(N(CC2=NCCN2)c2cccc(O)c2)cc1 [PHENTOLAMINE] | 0 | No-Dili-Concern |
| Clc1ccccc1C(c1ccccc1)(c1ccccc1)n1ccnc1 [CLOTRIMAZOLE] | 3 | Less-Dili-Concern |
| Nc1c(CC(=O)O)cccc1C(=O)c1ccc(Br)cc1 [BROMFENAC] | 8 | Most-Dili-Concern |
| O=C1c2cccc3c2[C@H](CCC3)CN1[C@@H]1CN2CCC1CC2 [PALONOSETRON] | 4 | Ambiguous-Dili-Concern |
| O=C1C(O)=C([C@H]2CC[C@H](c3ccc(Cl)cc3)CC2)C(=O)c2ccccc21 [ATOVAQUONE] | 8 | Ambiguous-Dili-Concern |
| O=C(O)Cc1csc(-c2ccc(Cl)cc2)n1 [FENCLOZIC ACID] | 8 | Most-Dili-Concern |
| CN1C(=O)OC(C)(C)C1=O [TRIMETHADIONE] | 5 | Ambiguous-Dili-Concern |
| CCC1=C(C)CN(C(=O)NCCc2ccc(S(=O)(=O)NC(=O)N[C@H]3CC[C@H](C)CC3)cc2)C1=O [GLIMEPIRIDE] | 7 | Less-Dili-Concern |
| C[C@](N)(Cc1ccc(O)c(O)c1)C(=O)O [METHYLDOPA] | 8 | Most-Dili-Concern |
| CC(C)C[C@H](NC(=O)[C@H](CCCCN)NC(=O)CNC(=O)[C@H](CC(C)C)NC(=O)[C@@H](NC(=O)[C@@H]1CSSC[C@H](N)C(=O)N[C@@H](CO)C(=O)N[C@@H](CC(N)=O)C(=O)N[C@@H](CC(C)C)C(=O)N[C@@H](CO)C(=O)N[C@@H]([C@@H](C)O)C(=O)N1)C(C)C)C(=O)N[C@@H](CO)C(=O)N[C@@H](CCC(N)=O)C(=O)N[C@@H](CCC(=O)O)C(=O)N[C@@H](CC(C)C)C(=O)N[C@@H](Cc1c[nH]cn1)C(=O)N[C@@H](CCCCN)C(=O)N[C@@H](CC(C)C)C(=O)N[C@@H](CCC(N)=O)C(=O)N[C@H](C(=O)N[C@@H](Cc1ccc(O)cc1)C(=O)N1CCC[C@H]1C(=O)N[C@@H](CCCNC(=N)N)C(=O)N[C@H](C(=O)N[C@@H](CC(N)=O)C(=O)N[C@H](C(=O)NCC(=O)N[C@@H](CO)C(=O)NCC(=O)N[C@H](C(=O)N1CCC[C@H]1C(N)=O)[C@@H](C)O)[C@@H](C)O)[C@@H](C)O)[C@@H](C)O [CALCITONIN SALMON] | 0 | No-Dili-Concern |
| Nc1ccc(S(=O)(=O)c2ccc(N)cc2)cc1 [DAPSONE] | 3 | Less-Dili-Concern |
| CCN(CCO)CCCC(C)Nc1ccnc2cc(Cl)ccc12 (stereo unspecified) [HYDROXYCHLOROQUINE] | 7 | Less-Dili-Concern |
| CC(C)NCC(O)c1ccc(NS(C)(=O)=O)cc1 (stereo unspecified) [SOTALOL] | 3 | Ambiguous-Dili-Concern |
| CO[C@H]1C[C@@H]2CC[C@@H](C)[C@@](O)(O2)C(=O)C(=O)N2CCCC[C@H]2C(=O)O[C@H]([C@H](C)C[C@@H]2CC[C@@H](O)[C@H](OC)C2)CC(=O)[C@H](C)/C=C(\C)[C@@H](O)[C@@H](OC)C(=O)[C@H](C)C[C@H](C)/C=C/C=C/C=C/1C [SIROLIMUS] | 8 | Less-Dili-Concern |
| N#Cc1ccc(C(c2ccc(C#N)cc2)n2cncn2)cc1 [LETROZOLE] | 2 | Less-Dili-Concern |
| CCOC(Nc1ccc(C(=O)O)cc1)C(=O)c1ccc(-c2ccccc2)cc1 (stereo unspecified) [XENAZOIC ACID] | 8 | Most-Dili-Concern |
| N[C@@H]1C[C@H]1c1ccccc1.N[C@H]1C[C@@H]1c1ccccc1 [TRANYLCYPROMINE] | 3 | Less-Dili-Concern |
| CC(C)(C)NC(=O)[C@@H]1C[C@@H]2CCCC[C@@H]2CN1C[C@@H](O)[C@H](Cc1ccccc1)NC(=O)[C@H](CC(N)=O)NC(=O)c1ccc2ccccc2n1 | 3 | Less-Dili-Concern |
| CCOC(=O)C1=C[C@@H](OC(CC)CC)[C@H](NC(C)=O)[C@@H](N)C1 [OSELTAMIVIR] | 3 | Ambiguous-Dili-Concern |
| CC(C)NNC(=O)c1ccncc1 [IPRONIAZID] | 8 | Most-Dili-Concern |
| Nc1nc(/C(=C/CC(=O)O)C(=O)N[C@@H]2C(=O)N3C(C(=O)O)=CCS[C@H]23)cs1 [CEFTIBUTEN] | 3 | Ambiguous-Dili-Concern |
| N[C@@H](C(=O)N[C@@H]1C(=O)N2C(C(=O)O)=C(Cl)CS[C@H]12)c1ccccc1 [CEFACLOR ANHYDROUS] | 3 | Less-Dili-Concern |
| COc1cc2nc(N3CCN(C(=O)C4CCCO4)CC3)nc(N)c2cc1OC (stereo unspecified) [TERAZOSIN] | 0 | No-Dili-Concern |

| Structure (SMILES) | DILI_severity_class [1] | DILI_Concern [2] |
| --- | --- | --- |
| CN(C)CCOc1ccc(/C(=C(/CCCl)c2ccccc2)c2ccccc2)cc1 [TOREMIFENE] | 3 | Ambiguous-Dili-Concern |
| CC(C)c1nc(CN(C)C(=O)N[C@H](C(=O)N[C@@H](Cc2ccccc2)C[C@H](O)[C@H](Cc2ccccc2)NC(=O)OCc2cncs2)C(C)C)cs1 [RITONAVIR] | 8 | Most-Dili-Concern |
| NCC1O[C@H](O[C@H]2[C@@H](O)[C@H](O[C@H]3[C@H](O)[C@@H](N)C[C@@H](N)[C@@H]3O[C@H]3O[C@H](CN)[C@@H](O)[C@H](O)[C@H]3N)O[C@@H]2CO)[C@H](N)[C@@H](O)[C@@H]1O (stereo partly specified) | 0 | No-Dili-Concern |
| CNC(=O)Oc1ccc2c(c1)[C@]1(C)CCN(C)[C@@H]1N2C [PHYSOSTIGMINE] | 0 | No-Dili-Concern |
| O=S(=O)(O)O[C@@H]1[C@@H](OS(=O)(=O)O)[C@H](O[C@@H]2CO[C@@H](O)[C@H](OS(=O)(=O)O)[C@H]2OS(=O)(=O)O)OC[C@H]1O | 3 | Ambiguous-Dili-Concern |
| C[C@]1(O)CC[C@H]2[C@@H]3CCC4=CC(=O)CC[C@]4(C)[C@@]3(F)[C@@H](O)C[C@@]21C [FLUOXYMESTERONE] | 8 | Ambiguous-Dili-Concern |
| COC(=O)[C@H](c1ccccc1Cl)N1CCc2sccc2C1 [CLOPIDOGREL] | 7 | Less-Dili-Concern |
| CS(=O)(=O)Nc1ccc([N+](=O)[O-])cc1Oc1ccccc1 [NIMESULIDE] | 8 | Most-Dili-Concern |
| Nc1nc(N)c2nc(-c3ccccc3)c(N)nc2n1 | 5 | Less-Dili-Concern |
| NCCc1ccc(O)cc1 [TYRAMINE] | 0 | No-Dili-Concern |
| CC[C@H]1OC(=O)[C@H](C)[C@@H](O[C@H]2C[C@@](C)(OC)[C@@H](O)[C@H](C)O2)[C@H](C)[C@@H](O[C@@H]2O[C@H](C)C[C@H](N(C)C)[C@H]2O)[C@](C)(O)C[C@@H](C)CN(C)[C@H](C)[C@@H](O)[C@]1(C)O [AZITHROMYCIN] | 7 | Less-Dili-Concern |
| CNCCCN1c2ccccc2CCc2ccccc21 [DESIPRAMINE] | 3 | Ambiguous-Dili-Concern |
| C/C=C1\NC(=O)[C@@H]2CSSCC/C=C/[C@@H](CC(=O)N[C@H](C(C)C)C(=O)N2)OC(=O)[C@H](C(C)C)NC1=O | 0 | No-Dili-Concern |
| CCCCC[C@H](O)/C=C/[C@@H]1[C@H]2C/C(=C/CCCC(=O)O)O[C@H]2C[C@H]1O [EPOPROSTENOL] | 7 | Ambiguous-Dili-Concern |
| CC(C[N+](C)(C)C)OC(N)=O (stereo unspecified) [BETHANECHOL] | 0 | No-Dili-Concern |
| Cc1ccc(NC(=O)c2ccc(CN3CCN(C)CC3)cc2)cc1Nc1nccc(-c2cccnc2)n1 [IMATINIB] | 8 | Most-Dili-Concern |
| CSc1ccc2c(c1)N(CCC1CCCCN1C)c1ccccc1S2 (stereo unspecified) [THIORIDAZINE] | 5 | Less-Dili-Concern |
| CNC(=O)c1cc(Oc2ccc(NC(=O)Nc3ccc(Cl)c(C(F)(F)F)c3)cc2)ccn1 [SORAFENIB] | 8 | Most-Dili-Concern |
| Cc1c(-c2ccccc2)oc2c(C(=O)OCCN3CCCCC3)cccc2c1=O [FLAVOXATE] | 0 | No-Dili-Concern |
| CNCCCC1c2ccccc2C=Cc2ccccc21 [PROTRIPTYLINE] | 0 | No-Dili-Concern |
| Cn1cnc([N+](=O)[O-])c1Sc1ncnc2nc[nH]c12 [AZATHIOPRINE] | 5 | Most-Dili-Concern |
| NC(=O)N1c2ccccc2CC(=O)c2ccccc21 [OXCARBAZEPINE] | 3 | Less-Dili-Concern |
| COc1cc(C(=O)NCc2ccc(OCCN(C)C)cc2)cc(OC)c1OC [TRIMETHOBENZAMIDE] | 5 | Ambiguous-Dili-Concern |
| O=C1CC[C@@]2(O)[C@H]3Cc4ccc(O)c5c4[C@@]2(CCN3CC2CC2)[C@H]1O5 [NALTREXONE] | 3 | Ambiguous-Dili-Concern |
| NC(=O)C(c1ccccc1)(c1ccccc1)[C@@H]1CCN(CCc2ccc3c(c2)CCO3)C1 [DARIFENACIN] | 0 | No-Dili-Concern |
| O=C1Cc2cc(CCN3CCN(c4nsc5ccccc45)CC3)c(Cl)cc2N1 [ZIPRASIDONE] | 3 | Less-Dili-Concern |
